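Protocol summary: plate cells (96-well), add compound at 5 concentrations, incubate 48 h, interpolate endpoints linearly. Here, GI50 denotes the concentration required for 50% inhibition of growth. Definition used: TGI = concentration required for complete inhibition of growth.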
What was measured:
Experiment in all cases: NCI anticancer screen, dose series, 48 h
786-0 renal = system: 786-0 renal
A498 renal = system: A498 renal
A549 NSCLC = system: A549 NSCLC
ACHN renal = system: ACHN renal
BT-549 breast = system: BT-549 breast
CAKI-1 renal = system: CAKI-1 renal
CCRF-CEM leukemia = system: CCRF-CEM leukemia
COLO 205 colon = system: COLO 205 colon
DU-145 prostate = system: DU-145 prostate
EKVX NSCLC = system: EKVX NSCLC
HCC-2998 colon = system: HCC-2998 colon
HCT-116 colon = system: HCT-116 colon
HCT-15 colon = system: HCT-15 colon
HL-60(TB) leukemia = system: HL-60(TB) leukemia
HOP-62 NSCLC = system: HOP-62 NSCLC
HOP-92 NSCLC = system: HOP-92 NSCLC
HS 578T breast = system: HS 578T breast
HT29 colon = system: HT29 colon
K-562 leukemia = system: K-562 leukemia
KM12 colon = system: KM12 colon
LOX IMVI melanoma = system: LOX IMVI melanoma
MALME-3M melanoma = system: MALME-3M melanoma
MCF7 breast = system: MCF7 breast
MDA-MB-231 breast = system: MDA-MB-231 breast
MDA-MB-435 = system: MDA-MB-435
MOLT-4 leukemia = system: MOLT-4 leukemia
NCI-H226 lung = system: NCI-H226 lung
NCI-H23 lung = system: NCI-H23 lung
NCI-H460 lung = system: NCI-H460 lung
NCI/ADR-RES ovarian = system: NCI/ADR-RES ovarian
OVCAR-3 ovarian = system: OVCAR-3 ovarian
OVCAR-4 ovarian = system: OVCAR-4 ovarian
OVCAR-5 ovarian = system: OVCAR-5 ovarian
OVCAR-8 ovarian = system: OVCAR-8 ovarian
PC-3 prostate = system: PC-3 prostate
RPMI-8226 leukemia = system: RPMI-8226 leukemia
RXF 393 renal = system: RXF 393 renal
SF-268 CNS = system: SF-268 CNS
SF-295 CNS = system: SF-295 CNS
SF-539 CNS = system: SF-539 CNS
SK-MEL-2 melanoma = system: SK-MEL-2 melanoma
SK-MEL-28 melanoma = system: SK-MEL-28 melanoma
SK-MEL-5 melanoma = system: SK-MEL-5 melanoma
SK-OV-3 ovarian = system: SK-OV-3 ovarian
SN12C renal = system: SN12C renal
SNB-19 CNS = system: SNB-19 CNS
SNB-75 CNS = system: SNB-75 CNS
SW-620 colon = system: SW-620 colon
T-47D breast = system: T-47D breast
TK-10 renal = system: TK-10 renal
U251 CNS = system: U251 CNS
UACC-257 melanoma = system: UACC-257 melanoma
UACC-62 melanoma = system: UACC-62 melanoma
UO-31 renal = system: UO-31 renal

Work on `Ic1ccc2[nH]cc(SSc3c[nH]c4ccc(I)cc34)c2c1` yielded a GI50 (786-0 renal) of 3.49 µM, a TGI (786-0 renal) of 12.4 µM and a GI50 (A498 renal) of 2060 nM. For the same molecule, the TGI (A498 renal) was 5.97 µM, the GI50 (A549 NSCLC) was 3.65 µM and the TGI (A549 NSCLC) was 12 µM. The GI50 (ACHN renal) was 2250 nM, the TGI (ACHN renal) was 6.99 µM and the GI50 (BT-549 breast) was 1350 nM. For the same molecule, the TGI (BT-549 breast) was 7.04 µM, the GI50 (CAKI-1 renal) was 2230 nM and the TGI (CAKI-1 renal) was 6.3 µM. The GI50 (CCRF-CEM leukemia) was 1250 nM, the TGI (CCRF-CEM leukemia) was 3.48 µM and the GI50 (COLO 205 colon) was 1910 nM. The TGI (COLO 205 colon) was 4.02 µM, the GI50 (DU-145 prostate) was 3.47 µM and the TGI (DU-145 prostate) was 12.9 µM. It also gave a GI50 (EKVX NSCLC) of 1200 nM, a TGI (EKVX NSCLC) of 10.1 µM and a GI50 (HCC-2998 colon) of 2340 nM. For the same molecule, the TGI (HCC-2998 colon) was 4.76 µM, the GI50 (HCT-116 colon) was 1250 nM and the TGI (HCT-116 colon) was 3.08 µM. For the same molecule, the GI50 (HCT-15 colon) was 2210 nM, the TGI (HCT-15 colon) was 10.4 µM and the GI50 (HL-60(TB) leukemia) was 1180 nM. For the same molecule, the TGI (HL-60(TB) leukemia) was 3.56 µM, the GI50 (HOP-62 NSCLC) was 3.14 µM and the TGI (HOP-62 NSCLC) was 8.71 µM. The GI50 (HOP-92 NSCLC) was 936 nM, the TGI (HOP-92 NSCLC) was 3.69 µM and the GI50 (HS 578T breast) was 1930 nM. The TGI (HS 578T breast) was 6.24 µM, the GI50 (HT29 colon) was 3.36 µM and the TGI (HT29 colon) was 11.2 µM. It also gave a GI50 (K-562 leukemia) of 2000 nM, a TGI (K-562 leukemia) of 6.27 µM and a GI50 (KM12 colon) of 1500 nM. It also gave a TGI (KM12 colon) of 5.83 µM, a GI50 (LOX IMVI melanoma) of 1430 nM and a TGI (LOX IMVI melanoma) of 3.51 µM. It also gave a GI50 (MALME-3M melanoma) of 1920 nM, a TGI (MALME-3M melanoma) of 8.29 µM and a GI50 (MCF7 breast) of 2690 nM. It also gave a TGI (MCF7 breast) of 11.6 µM, a GI50 (MDA-MB-231 breast) of 2100 nM and a TGI (MDA-MB-231 breast) of 5.13 µM. The GI50 (MDA-MB-435) was 2840 nM, the TGI (MDA-MB-435) was 8.97 µM and the GI50 (MOLT-4 leukemia) was 1700 nM. It also gave a TGI (MOLT-4 leukemia) of 4.62 µM, a GI50 (NCI-H226 lung) of 1980 nM and a TGI (NCI-H226 lung) of 9.35 µM. It also gave a GI50 (NCI-H23 lung) of 2360 nM, a TGI (NCI-H23 lung) of 7.96 µM and a GI50 (NCI-H460 lung) of 2410 nM. For the same molecule, the TGI (NCI-H460 lung) was 6.52 µM, the GI50 (NCI/ADR-RES ovarian) was 2570 nM and the TGI (NCI/ADR-RES ovarian) was 7.13 µM. For the same molecule, the GI50 (OVCAR-3 ovarian) was 1730 nM, the TGI (OVCAR-3 ovarian) was 5.56 µM and the GI50 (OVCAR-4 ovarian) was 3.02 µM. It also gave a TGI (OVCAR-4 ovarian) of 16.6 µM, a GI50 (OVCAR-5 ovarian) of 2380 nM and a TGI (OVCAR-5 ovarian) of 6.11 µM. The GI50 (OVCAR-8 ovarian) was 3.77 µM, the TGI (OVCAR-8 ovarian) was 17.8 µM and the GI50 (PC-3 prostate) was 492 nM. For the same molecule, the TGI (PC-3 prostate) was 4.65 µM, the GI50 (RPMI-8226 leukemia) was 1780 nM and the TGI (RPMI-8226 leukemia) was 5.5 µM. It also gave a GI50 (RXF 393 renal) of 1500 nM, a TGI (RXF 393 renal) of 5.68 µM and a GI50 (SF-268 CNS) of 2990 nM. For the same molecule, the TGI (SF-268 CNS) was 10.9 µM, the GI50 (SF-295 CNS) was 1890 nM and the TGI (SF-295 CNS) was 4.69 µM. The GI50 (SF-539 CNS) was 2390 nM, the TGI (SF-539 CNS) was 9.29 µM and the GI50 (SK-MEL-2 melanoma) was 2300 nM. For the same molecule, the TGI (SK-MEL-2 melanoma) was 6.96 µM, the GI50 (SK-MEL-28 melanoma) was 3.36 µM and the TGI (SK-MEL-28 melanoma) was 12.6 µM. For the same molecule, the GI50 (SK-MEL-5 melanoma) was 3.18 µM, the TGI (SK-MEL-5 melanoma) was 13.5 µM and the GI50 (SK-OV-3 ovarian) was 3.46 µM. The TGI (SK-OV-3 ovarian) was 11.7 µM, the GI50 (SN12C renal) was 2860 nM and the TGI (SN12C renal) was 11 µM. For the same molecule, the GI50 (SNB-19 CNS) was 3.25 µM, the TGI (SNB-19 CNS) was 11.9 µM and the GI50 (SNB-75 CNS) was 2360 nM. The TGI (SNB-75 CNS) was 9.28 µM, the GI50 (SW-620 colon) was 2740 nM and the TGI (SW-620 colon) was 10.5 µM. For the same molecule, the GI50 (T-47D breast) was 2680 nM, the TGI (T-47D breast) was 11.2 µM and the GI50 (TK-10 renal) was 2880 nM. It also gave a TGI (TK-10 renal) of 10.1 µM, a GI50 (U251 CNS) of 2250 nM and a TGI (U251 CNS) of 10.1 µM. For the same molecule, the GI50 (UACC-257 melanoma) was 2790 nM, the TGI (UACC-257 melanoma) was 6.74 µM and the GI50 (UACC-62 melanoma) was 2700 nM. For the same molecule, the TGI (UACC-62 melanoma) was 11.5 µM, the GI50 (UO-31 renal) was 3.06 µM and the TGI (UO-31 renal) was 17.3 µM.
